One data set concerns the target PDGFRα (Homo sapiens (Human), UniProt P16234). Nature of the data set: PDGFRα kinase enzyme assay (Promega PDGFRα Kinase Enzyme System, ADP-Glo). The data set is classed as biochemical. The settings on record: 11-point dose response, 10,000 nM to 0.169 nM; 150 uM ATP; BLQ = below limit of quantitation; read-out: IC50 Values on PDGFRα Kinase Inhibition, IC50. The method in brief: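 Read-out was ADP-Glo: remaining ATP depleted, ADP converted to luminescence and compared with a standard curve.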
On the technique in general: In ADP-Glo the light output rises with the ADP produced.

In data set [1] the test system is Oligodendrocyte progenitor cells (OPCs). Briefly: In vitro OPC differentiation assay, GPR17 expression (immunocytochemistry). The settings on record: 3 μM (10× concentration, final 0.3 μM); 72 hours; fold change over vehicle.
Procedure: To assess the effects of the PDGFRα inhibitors on OPC differentiation, primary OPCs were cultured and exposed to compounds. The number of newly generated oligodendrocytes was assessed by monitoring GPR17 expression. GPR17 is preferentially expressed in actively differentiating oligodendrocytes, allowing them to be distinguished from precursors and more differentiated oligodendrocytes.
Cortices from postnatal day (P) 1-3 rats were dissected and collected into ice cold Hank's Balanced Salt Solution (HBSS). […] Briefly, the cortical cell suspension was centrifuged and washed with buffer (0.5% BSA in PBS) and labeled with Anti-A2B^5 MicroBeads (10 μL beads per 1×10^7 cells) for 15 minutes at 4° C. Following the incubation, cells were washed once with BSA buffer to remove unlabeled beads. A2B^5 positive cells were eluted on the column using the AutoMACS® (Miltenyi, as per manufacturer's protocol using “Possel-s” program). Eluted cells were further washed twice with OPC growth media. Cell counts were performed using Countess III cell counter (ThermoFisher; AMQAX2000) and cells were plated.
The plates were allowed to sit at room temperature for 15 minutes to ensure proper dispersion of cells in a well. The plates were then transferred to the incubator (37° C.; 5% CO2).
Cells were then incubated for 72 hours at 37° C., 5% CO2 before immunostaining for GPR17 marker expression.
Following 72 hours in culture, cells were fixed with 4% paraformaldehyde for 15 minutes and then washed three times in Dulbecco's phosphate buffered saline (DPBS). Prior to immunostaining, cells were treated with a blocking solution (10% normal goat serum containing 1% BSA and 0.1% Triton® X-100 in DPBS) for 15 minutes at room temperature. Primary antibody (anti-GPR17 at 1:2000; Origene TA811615) was applied to cells overnight at 4° C. in incubation solution containing 1% normal goat serum, 1% BSA, and 0.1% Triton X-100 in DPBS. […] The secondary antibody was applied in incubation solution for 2 hours at room temperature, protected from light.
The number of differentiated GPR17+ cells was normalized to the total nuclei count and percent differentiated GPR17+ cells were reported. Statistical analysis was done using one-way ANOVA with multiple comparisons and post-hoc Tukey test in GraphPad Prism (GraphPad Software).

Experimental findings from patent US20250129067A1 (Progentos Therapeutics, Inc., priority 2021, published 2025) are described below.

Sequence of PDGFRα (P16234 24-1089): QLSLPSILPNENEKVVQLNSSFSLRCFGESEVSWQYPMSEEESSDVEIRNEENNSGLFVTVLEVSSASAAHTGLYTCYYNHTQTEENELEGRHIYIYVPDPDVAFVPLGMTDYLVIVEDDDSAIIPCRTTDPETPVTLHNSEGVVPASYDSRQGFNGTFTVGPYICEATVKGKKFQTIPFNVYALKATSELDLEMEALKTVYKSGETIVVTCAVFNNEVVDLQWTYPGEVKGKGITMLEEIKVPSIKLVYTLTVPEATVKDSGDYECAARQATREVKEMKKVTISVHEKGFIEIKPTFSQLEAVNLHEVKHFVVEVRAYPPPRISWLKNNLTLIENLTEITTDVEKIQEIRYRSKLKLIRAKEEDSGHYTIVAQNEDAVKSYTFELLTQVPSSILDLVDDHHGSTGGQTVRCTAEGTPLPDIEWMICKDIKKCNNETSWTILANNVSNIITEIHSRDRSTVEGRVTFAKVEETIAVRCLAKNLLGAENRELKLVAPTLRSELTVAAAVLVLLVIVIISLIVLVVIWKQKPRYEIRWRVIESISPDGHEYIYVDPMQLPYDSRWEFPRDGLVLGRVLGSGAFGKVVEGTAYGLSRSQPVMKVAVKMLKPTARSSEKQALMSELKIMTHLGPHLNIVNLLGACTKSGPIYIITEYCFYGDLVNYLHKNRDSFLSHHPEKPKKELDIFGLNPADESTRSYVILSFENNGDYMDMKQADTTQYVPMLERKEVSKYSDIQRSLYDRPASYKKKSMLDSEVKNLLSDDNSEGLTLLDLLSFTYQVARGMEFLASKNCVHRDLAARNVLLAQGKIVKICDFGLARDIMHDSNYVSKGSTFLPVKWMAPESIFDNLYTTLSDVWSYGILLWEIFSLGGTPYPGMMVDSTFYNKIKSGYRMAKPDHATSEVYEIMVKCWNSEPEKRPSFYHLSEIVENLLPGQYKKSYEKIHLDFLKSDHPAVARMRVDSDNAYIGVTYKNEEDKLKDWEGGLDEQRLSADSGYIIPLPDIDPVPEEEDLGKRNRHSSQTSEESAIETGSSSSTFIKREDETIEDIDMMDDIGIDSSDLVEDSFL

As for `Cn1cc(-c2ccc3c(N4CCN(C(=O)OC5CCOCC5)CC4)cnn3c2)cn1` [Compound 39, tetrahydro-2H-pyran-4-yl 4-[6-(1-methyl-1H-pyrazol-4-yl)pyrazolo[1,5-a]pyridin-3-yl]piperazine-1-carboxylate], the IC50 on PDGFRα was > 10 µM. In addition, the “GPR17 Fold Induction (Over Vehicle; 3 μM)” value (“GPR17 Fold Induction” below) in data set [1] is on record as 1.78.

As for `CC1CC(COC(=O)N2CCN(c3cnn4cc(-c5cnn(C)c5)ccc34)CC2)C1` (stereo not shown) [Compound 310, (3-methylcyclobutyl)methyl 4-[6-(1-methyl-1H-pyrazol-4-yl)pyrazolo[1,5-a]pyridin-3-yl]piperazine-1-carboxylate], the IC50 at PDGFRα was > 10 µM. Moreover, in data set [1], the “GPR17 Fold Induction” value stood at 4.86.

Regarding `CC(C)(C)OC(=O)N1CCN(c2cnn3cc(C4CCC(O)C4)ccc23)CC1` (stereo not shown) [Compound 215, tert-butyl 4-[6-(3-hydroxycyclopentyl)pyrazolo[1,5-a]pyridin-3-yl]piperazine-1-carboxylate], on PDGFRα, the IC50 was > 10 µM. The “GPR17 Fold Induction” value in data set [1] was determined as 0.76.

With `Cn1cc(-c2ccc3c(N4CCN(S(=O)(=O)NCc5ccccc5)CC4)cnn3c2)cn1` [Compound 159, N-benzyl-4-[6-(1-methyl-1H-pyrazol-4-yl)pyrazolo[1,5-a]pyridin-3-yl]piperazine-1-sulfonamide], the IC50 on PDGFRα worked out at 0.45 µM. The “GPR17 Fold Induction” value in data set [1] came to 3.62.

On to `Cn1cc(-c2ccc3c(N4CCN(C(=O)OC(C)(C)C)CC4)cnn3n2)cn1` [Compound 45, Tert-butyl 4-[6-(1-methyl-1H-pyrazol-4-yl)pyrazolo[1,5-b]pyridazin-3-yl]piperazine-1-carboxylate], for which the IC50 on PDGFRα is 1.39 µM. Moreover, the “GPR17 Fold Induction” value in data set [1] came to 1.39.

For `Cn1cc(-c2ccc3c(N4CCN(c5ncc(CC6CCOCC6)cn5)CC4)cnn3c2)cn1` [Compound 68, 6-(1-methyl-1H-pyrazol-4-yl)-3-{4-[5-(tetrahydro-2H-pyran-4-ylmethyl)pyrimidin-2-yl]piperazin-1-yl}pyrazolo[1,5-a]pyridine], the IC50 on PDGFRα amounted to 1.24 µM. Moreover, the “GPR17 Fold Induction” value in data set [1] amounted to 4.35.

On to `Cn1cc(-c2ccc3c(NCC(=O)Nc4ncc(Cc5ccccc5)cn4)cnn3c2)cn1` [Compound 244, N-(5-benzylpyrimidin-2-yl)-2-((6-(1-methyl-1H-pyrazol-4-yl)pyrazolo[1,5-a]pyridin-3-yl)amino) acetamide], for which the IC50 at PDGFRα was 2.14 µM. In addition, in data set [1], the “GPR17 Fold Induction” value is given as 4.76.

As to `Cn1cc(-c2cc3ncc(N4CCN(C(=O)NCc5ccc(C(F)(F)F)cc5)CC4)n3cn2)cn1` [Compound 118, 4-(7-(1-methyl-1H-pyrazol-4-yl)imidazo[1,2-c]pyrimidin-3-yl)-N-(4-(trifluoromethyl)benzyl)piperazine-1-carboxamide], the IC50 on PDGFRα is > 10 µM. Also, in data set [1], the “GPR17 Fold Induction” value is reported as 0.93.

For the molecule `Cn1cc(-c2ccc3c(N4CCN(c5ncc(Cc6nnco6)cn5)CC4)cnn3c2)cn1` [Compound 180, 2-((2-(4-(6-(1-methyl-1H-pyrazol-4-yl)pyrazolo[1,5-a]pyridin-3-yl)piperazin-1-yl)pyrimidin-5-yl)methyl)-1,3,4-oxadiazole], at PDGFRα, the IC50 is 4.33 µM. For the same molecule, the “GPR17 Fold Induction” value in data set [1] was determined as 4.05.

In the case of `Cn1cc(-c2ccc3c(N4CCN(S(=O)(=O)CCc5ccccc5)CC4)cnn3c2)cn1` [Compound 160, 6-(1-methyl-1H-pyrazol-4-yl)-3-(4-(phenethylsulfonyl)piperazin-1-yl)pyrazolo[1,5-a]pyridine], the IC50 at PDGFRα stood at 9.68 µM. The “GPR17 Fold Induction” value in data set [1] came to 2.80.

Consider `Cn1cc(-c2ccc3c(N4CCC(C(=O)OCc5ccccc5)CC4)cnn3c2)cn1` [Compound 145, benzyl 1-(6-(1-methyl-1H-pyrazol-4-yl)pyrazolo[1,5-a]pyridin-3-yl)piperidine-4-carboxylate], for which the IC50 at PDGFRα was found to be 6.97 µM. The “GPR17 Fold Induction” value in data set [1] was 1.73.

The IC50 is the midpoint of a concentration-inhibition curve.
